The record followed here is ChEMBL document CHEMBL3992489, “Potentiation of the Fosmidomycin analogue FR 900098 with substituted 2-oxazolines against Francisella novicida” (2016).

Test [1] is described as follows: Antibacterial activity against Francisella novicida U112 after 48 hrs. The class given is functional, Francisella tularensis subsp. novicida U112. The note with it: Francisella tularensis.
The nature of test [2]: Potentiation of FR900098-induced antibacterial activity against Francisella novicida U112 assessed as FR900098 MIC after 48 hrs. The class given is functional, Francisella tularensis subsp. novicida U112. The note with it: Francisella tularensis.
Test [3] in a line: Potentiation of FR900098-induced antibacterial activity against Francisella novicida U112 assessed as fold reduction in FR900098 MIC after 48 hrs. The class given is functional, Francisella tularensis subsp. novicida U112.
The nature of test [4]: Potentiation of FR900098-induced antibacterial activity against Francisella philomiragia ATCC 25015 assessed as fold reduction in FR900098 MIC after 48 hrs. The class given is functional, Francisella philomiragia subsp. philomiragia ATCC 25015.
Test [5] concerns Francisella tularensis subsp. novicida U112. In words: Potentiation of FR900098-induced antibacterial activity against Francisella novicida U112 assessed as reduction in FR900098 MIC at <30 uM after 48 hrs. The class given is functional.
A short description of test [6]: Potentiation of FR900098-induced antibacterial activity against Francisella novicida U112 assessed as fold reduction in FR900098 MIC at 40 uM after 48 hrs. The class given is functional, Francisella tularensis subsp. novicida U112.
Test [7] can be described thus: Potentiation of FR900098-induced antibacterial activity against Francisella novicida U112 assessed as FR900098 MIC at 40 uM after 48 hrs. The class given is functional, Francisella tularensis subsp. novicida U112. The note with it: Francisella tularensis.
In test [8] the test system is Francisella tularensis subsp. novicida U112. In words: Bactericidal activity against Francisella novicida U112 at 25% antibacterial MIC up to 24 hrs by time kill curve assay. The class given is functional.
Test [9] can be described thus: Antibacterial activity against Francisella philomiragia ATCC 25015 after 48 hrs. The class given is functional, Francisella philomiragia subsp. philomiragia ATCC 25015. The note with it: ATCC 25015, 48 h.

The source made the active and inactive calls. The rule behind the calls is not given here. Bounds are passed on as bounds.

Consider `CCCCCCc1ccc(C2=NCCS2)cc1`, for which the MIC (in general, the least concentration at which growth counts as inhibited) in test [1] is > 200 µM; in test [2], 2 µg/mL. For the same molecule, in [3], the “fold change (FC)” value is 8.
In the case of `Fc1cc(C2=NCCO2)ccc1C(F)(F)F`, the MIC was > 200 µM in [1] and 16 µg/mL in test [2].
As for `CCCCCCc1ccc(C2=NCCN2)cc1`, the MIC was found to be 100 µM in [1] and 16 µg/mL in test [2].
Take `CCCCc1ccc(C2=NCCO2)cc1`: the MIC was > 200 µM in [1] and 4 µg/mL in test [2]. Also, the “fold change (FC)” value in test [3] turned out to be 4.
Consider `CCCCCCc1ccc(C2SCCS2)cc1`, for which the MIC in test [1] was > 200 µM; in [2] it was 16 µg/mL.
For `CN(C)c1ccc(C2=NCCO2)cc1`, the results for the MIC in [1] and in test [2] were > 200 µM and 16 µg/mL, respectively.
Take `CCCCCCCc1ccc(C2=NCCO2)cc1`: the MIC amounted to 100 µM in test [1] and 2 µg/mL in [2]. The “fold change (FC)” value in test [3] is 8.
On to `CCCCCCc1ccc(C2=NCCCO2)cc1`, for which the figures for the MIC in test [1] and in test [2] were 50 µM and 4 µg/mL, respectively. In addition, the “fold change (FC)” value in [3] stood at 4.
Consider `C(=C\c1ccccc1)/C1=NCCO1`, for which the MIC in [1] was > 200 µM; in test [2], 32 µg/mL.
Consider `CCCCCc1ccc(C2=NCCS2)cc1`, for which the MIC in test [1] was determined as 200 µM; in test [2], 1 µg/mL. Also, the “fold change (FC)” value in test [3] amounted to 16.
Turning to `CCCc1ccc(C2=NCCO2)cc1`, the MIC was > 200 µM in test [1] and 16 µg/mL in [2].
Taken in the same sequence, the figures for `c1ccc(C2=NCCO2)cc1` were > 200 µM and 16 µg/mL.
As to `CCCCCCc1ccc(C2=NCCO2)cc1`, the MIC is > 200 µM in test [1] and 0.0156 µg/mL in [7]. Also, the “fold change (FC)” value in [4] worked out at 32; in [6], 1000. Further, the outcome in test [5] and in [8] was inactive.
`CCCCCc1ccc(-c2ncco2)cc1`: the MIC was determined as 200 µM in test [1] and 16 µg/mL in test [2].
The corresponding values for `CCCCCCc1ccc(-c2c[nH]c(N)n2)cc1` are 12.5 µM and 32 µg/mL.
Regarding `CCCCCCc1ccc(-c2ncc[nH]2)cc1`, the MIC was 12.5 µM in test [1] and 32 µg/mL in test [2].
With `Cc1ccc(C2=NCCO2)cc1`, the MIC in [1] is > 200 µM; in [2] it was 16 µg/mL.
Take `CCCCCCc1ccc(C2OCCO2)cc1`: the MIC in test [1] was > 200 µM; in [2], 16 µg/mL.
Take `c1ccc2cc(C3=NCCO3)ccc2c1`: the MIC in test [1] is 100 µM; in test [2], 16 µg/mL.
As for `Brc1cccc(C2=NCCO2)c1`, the MIC in test [1] is > 200 µM; in [2], 16 µg/mL.
Consider `CCCCCCCCc1ccc(C2=NCCO2)cc1`, for which the MIC in [1] stood at 200 µM; in [2] it was 2 µg/mL. Moreover, the “fold change (FC)” value in test [3] is recorded as 8.
Regarding `CCCCCCc1ccc(-c2ncco2)cc1`, the MIC was > 200 µM in test [1] and 16 µg/mL in test [2].
`Fc1cc(C2=NCCO2)cc(F)c1F`: the MIC in [1] was > 200 µM; in test [2], 16 µg/mL.
`CCCCCCc1ccc(-c2ccncc2)cc1`: the MIC in test [1] stood at 100 µM; in test [2], 0.5 µg/mL.
`CCCCCCc1ccc(-c2cncnc2)cc1`: the MIC in test [1] was 100 µM; in [2] it was 4 µg/mL. Also, the “fold change (FC)” value in test [3] is on record as 32.
Regarding `c1cc(C2=NCCO2)ccn1`, the values for the MIC in test [1] and in test [2] were > 200 µM and 16 µg/mL, respectively.
In the case of `CCCCCCc1ccc(C(=O)OC)cc1`, the MIC in test [1] worked out at 200 µM; in [2], 8 µg/mL.
Regarding `CCc1ccc(C2=NCCO2)cc1`, the MIC is > 200 µM in test [1] and 16 µg/mL in [2].
For `CCCCCc1ccc(C2=NCCO2)cc1`, the MIC in test [1] was determined as 200 µM; in test [9], 200 µM; in test [2], 4 µg/mL. The “fold change (FC)” value in test [4] was 4.
As for `c1ccc(/N=N/c2ccc(C3=NCCO3)cc2)cc1`, the MIC in [1] was > 200 µM; in test [2] it was 16 µg/mL.
Consider `CC(=O)N(O)CCCP(=O)(O)O` [FR-900098], for which the MIC in [1] came out at 16 µg/mL; in test [9], 1020 µg/mL.
Regarding `CCCCCCCCCCc1ccc(C2=NCCO2)cc1`, the MIC in [1] is > 200 µM; in test [2] it was 16 µg/mL. Further, the “fold change (FC)” value in [3] is 8.
On to `CCCCCCCCCc1ccc(C2=NCCO2)cc1`, for which the MIC is > 200 µM in test [1] and 16 µg/mL in [2]. In addition, the “fold change (FC)” value in test [3] is 8.
